biological target: T1, EGFR (Homo sapiens, UniProt P00533); experiment: Biochemical EGFR Assay; parameters: concentration or dose not given beside the values; conditions: not given
T1 construct: endogenous in cells; host or cells: A431 cells (lysate, captured with SUMO1 anti-EGFR antibody)
Procedure, shortened: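 Readout is ABTS absorbance at 410 nm after anti-phosphotyrosine and HRP-antibody detection of EGFR autophosphorylation. The kinase was immunocaptured from A431 lysate, exposed 30 min to test compound diluted 1:10 in TBS, then phosphorylated for 5 min with ATP/MnCl2 before an EDTA stop.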

T1 sequence (P00533 25-1210): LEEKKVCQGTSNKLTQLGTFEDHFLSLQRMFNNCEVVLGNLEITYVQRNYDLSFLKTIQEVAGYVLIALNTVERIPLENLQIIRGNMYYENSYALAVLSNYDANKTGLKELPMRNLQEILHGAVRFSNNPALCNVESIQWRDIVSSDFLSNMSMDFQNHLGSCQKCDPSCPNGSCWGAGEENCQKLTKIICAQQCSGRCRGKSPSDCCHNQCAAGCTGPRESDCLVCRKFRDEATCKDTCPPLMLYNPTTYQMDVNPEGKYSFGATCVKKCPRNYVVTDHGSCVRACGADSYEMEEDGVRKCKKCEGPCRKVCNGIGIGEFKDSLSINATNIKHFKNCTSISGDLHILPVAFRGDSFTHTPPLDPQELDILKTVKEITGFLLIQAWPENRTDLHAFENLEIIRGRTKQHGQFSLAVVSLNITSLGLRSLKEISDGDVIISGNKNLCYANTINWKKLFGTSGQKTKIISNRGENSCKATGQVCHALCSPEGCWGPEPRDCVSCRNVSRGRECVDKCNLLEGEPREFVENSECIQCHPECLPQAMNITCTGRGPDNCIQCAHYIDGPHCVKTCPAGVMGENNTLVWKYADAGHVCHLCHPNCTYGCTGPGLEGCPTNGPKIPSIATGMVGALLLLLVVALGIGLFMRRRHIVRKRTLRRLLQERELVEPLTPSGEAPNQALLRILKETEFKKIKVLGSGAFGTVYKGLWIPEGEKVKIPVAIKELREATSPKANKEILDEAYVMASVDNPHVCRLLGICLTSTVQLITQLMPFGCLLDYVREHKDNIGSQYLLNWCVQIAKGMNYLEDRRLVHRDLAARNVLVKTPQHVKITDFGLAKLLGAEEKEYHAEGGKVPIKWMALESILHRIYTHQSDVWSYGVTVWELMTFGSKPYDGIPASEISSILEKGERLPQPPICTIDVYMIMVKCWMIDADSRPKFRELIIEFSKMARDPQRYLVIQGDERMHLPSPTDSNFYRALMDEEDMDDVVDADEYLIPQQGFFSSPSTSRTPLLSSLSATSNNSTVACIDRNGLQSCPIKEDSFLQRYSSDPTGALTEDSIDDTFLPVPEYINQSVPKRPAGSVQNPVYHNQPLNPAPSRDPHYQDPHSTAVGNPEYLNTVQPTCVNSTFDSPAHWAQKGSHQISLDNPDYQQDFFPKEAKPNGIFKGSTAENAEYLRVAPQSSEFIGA

Row | SMILES | Biochem EGFR % Inhibition (P.167)
1 | CCOc1ccccc1C=C1C(=O)Nc2c(Br)cc(Br)c(C)c21 [10717/H02] | 3.5%
2 | Cc1c(Br)cc(Br)c2c1C(=Cc1cccs1)C(=O)N2 [10717/H03] | 25.7%
3 | Cc1c(Br)cc(Br)c2c1C(=Cc1cccn1C)C(=O)N2 [10717/H04] | 6.8%
4 | COc1ccc(C=C2C(=O)Nc3c(Br)cc(Br)c(C)c32)cc1OC [10720/H04] | −49.6%
5 | Cc1c(Br)cc(Br)c2c1C(=Cc1ccccc1O)C(=O)N2 [10720/H05] | −29.0%
6 | Cc1c(Br)cc(Br)c2c1C(=Cc1ccccc1)C(=O)N2 [10720/H06] | −52.4%
7 | CSc1ccc(C=C2C(=O)Nc3c(Br)cc(Br)c(C)c32)s1 [10720/H07] | −49.8%
8 | Cc1cc(O)cc(O)c1C=C1C(=O)Nc2c(Br)cc(Br)c(C)c21 [10720/H08] | −55.8%
9 | CCOc1cc(C=C2C(=O)Nc3c(Br)cc(Br)c(C)c32)ccc1O [10720/H09] | −66.8%
10 | COc1ccc(O)c(C=C2C(=O)Nc3c(Br)cc(Br)c(C)c32)c1 [10720/H10] | −62.8%
11 | Cc1c(Br)cc(Br)c2c1C(=Cc1ncc[nH]1)C(=O)N2 [10720/H11] | −19.3%
12 | Cc1c(Br)cc(Br)c2c1C(=Cc1nc3ccccc3n1C)C(=O)N2 [10721/H02] | 20.1%
13 | Cc1c(Br)cc(Br)c2c1C(=Cc1nn(C)cc1Cl)C(=O)N2 [10721/H03] | 29.2%
14 | Cc1cc(C=C2C(=O)Nc3c(Br)cc(Br)c(C)c32)sc1C [10721/H04] | −8.5%
15 | Cc1c(Br)cc(Br)c2c1C(=Cc1cc3c([nH]1)CCCC3)C(=O)N2 [10721/H05] | −12.4%
16 | Cc1c(Br)cc(Br)c2c1C(=Cc1cc([N+](=O)[O-])cc(CCl)c1O)C(=O)N2 [10721/H06] | 43.3%
17 | Cc1c(Br)cc(Br)c2c1C(=Cc1ccc(Cl)s1)C(=O)N2 [10721/H07] | −20.5%
18 | Cc1cc(C)c(C=C2C(=O)Nc3c(Br)cc(Br)c(C)c32)[nH]1 [10721/H08] | −6.8%
19 | Cc1c(Br)cc(Br)c2c1C(=Cc1ccc(O)c(C(C)(C)C)c1)C(=O)N2 [10721/H09] | −10.4%
20 | Cc1c(Br)cc(Br)c2c1C(=Cc1cc(Br)c(O)c(C(C)(C)C)c1)C(=O)N2 [10721/H10] | −3.9%
21 | Cc1c(Br)cc(Br)c2c1C(=Cc1cc(C(C)(C)C)c(O)c(C(C)(C)C)c1)C(=O)N2 [10721/H11] | −21.3%
22 | Cc1c(Br)cc(Br)c2c1C(=Cc1cc([N+](=O)[O-])c(O)c(C(C)(C)C)c1)C(=O)N2 [10722/H02] | 24.8%
23 | Cc1c(Br)cc(Br)c2c1C(=Cc1c(O)cc(O)cc1O)C(=O)N2 [10722/H03] | 27.8%

Row | SMILES | Biochem EGFR % Inhibition (P.167)
24 | Cc1c(Br)cc(Br)c2c1C(=Cc1ccc([N+](=O)[O-])s1)C(=O)N2 [10722/H04] | 8.6%
25 | Cc1c(Br)cc(Br)c2c1C(=Cc1ccc(C(=O)O)cc1)C(=O)N2 [10722/H05] | 1.1%
26 | Cc1c(Br)cc(Br)c2c1C(=Cc1ccc(F)cc1F)C(=O)N2 [10722/H06] | −2.0%
27 | Cc1cc(C=C2C(=O)Nc3c(Br)cc(Br)c(C)c32)cc(C)c1O [10722/H07] | −24.8%
28 | Cc1c(Br)cc(Br)c2c1C(=Cc1cc(Cl)c(O)c(C(C)(C)C)c1)C(=O)N2 [10722/H08] | −5.7%
29 | Cc1c(Br)cc(Br)c2c1C(=Cc1csc([N+](=O)[O-])c1)C(=O)N2 [10722/H09] | −7.4%
30 | CCCCN(CCCC)c1ccc(C=C2C(=O)Nc3c(Br)cc(Br)c(C)c32)cc1 [10722/H10] | −11.2%
31 | Cc1c(Br)cc(Br)c2c1C(=Cc1ccc(C(F)(F)F)cc1)C(=O)N2 [10722/H11] | −16.3%
32 | Cc1c(Br)cc(Br)c2c1C(=Cc1ccc(O)c(O)c1O)C(=O)N2 [10723/H02] | 72.8%
33 | COc1cccc(C=C2C(=O)Nc3c(Br)cc(Br)c(C)c32)c1O [10723/H03] | 6.3%
34 | Cc1c(Br)cc(Br)c2c1C(=Cc1cc(O)c(O)c(Br)c1)C(=O)N2 [10723/H04] | 7.1%
35 | CC(=O)Oc1ccc(C=C2C(=O)Nc3c(Br)cc(Br)c(C)c32)cc1OC(C)=O [10723/H05] | −17.3%
36 | Cc1cc(C=C2C(=O)Nc3c(Br)cc(Br)c(C)c32)ccc1O [10723/H06] | −11.8%
37 | Cc1c(Br)cc(Br)c2c1C(=Cc1ccccc1Br)C(=O)N2 [10723/H07] | −11.3%
38 | Cc1c(Br)cc(Br)c2c1C(=Cc1ccc(O)cc1O)C(=O)N2 [10723/H08] | 69.9%
39 | COc1ccc(C=C2C(=O)Nc3c(Br)cc(Br)c(C)c32)c(O)c1 [10723/H09] | −2.6%
40 | Cc1c(Br)cc(Br)c2c1C(=Cc1cccc(Br)c1)C(=O)N2 [10723/H10] | −38.1%
41 | Cc1c(Br)cc(Br)c2c1C(=Cc1cc(C(C)(C)C)cc(C(C)(C)C)c1O)C(=O)N2 [10723/H11] | −20.7%
42 | Cc1c(Br)cc(Br)c2c1C(=Cc1ccc(N(C)C)c3ccccc13)C(=O)N2 [10724/H02] | 17.6%
43 | Cc1c(Br)cc(Br)c2c1C(=Cc1ccc(O)c([N+](=O)[O-])c1)C(=O)N2 [10724/H03] | 0.3%
44 | Cc1c(Br)cc(Br)c2c1C(=Cc1ccc([N+](=O)[O-])c(O)c1)C(=O)N2 [10724/H04] | 14.0%
45 | Cc1c(Br)cc(Br)c2c1C(=Cc1cc3c4c(c1O)CCCN4CCC3)C(=O)N2 [10724/H05] | −1.3%
46 | Cc1c(Br)cc(Br)c2c1C(=Cc1cc(C(C)C)c(O)c(C(C)C)c1)C(=O)N2 [10724/H06] | −8.2%

Row | SMILES | Biochem EGFR % Inhibition (P.167)
47 | Cc1c(Br)cc(Br)c2c1C(=Cc1cc3ccccc3o1)C(=O)N2 [10724/H07] | −19.3%
48 | COc1cc(O)c(C=C2C(=O)Nc3c(Br)cc(Br)c(C)c32)c(OC)c1 [10724/H08] | −19.7%
49 | Cc1c(Br)cc(Br)c2c1C(=Cc1cccn1-c1ccc(Cl)cc1)C(=O)N2 [10724/H09] | −33.5%
50 | CCc1ccc(C=C2C(=O)Nc3c(Br)cc(Br)c(C)c32)o1 [10724/H10] | −25.5%
51 | Cc1c(Br)cc(Br)c2c1C(=Cc1sc3scc(C)c3c1C)C(=O)N2 [10724/H11] | −12.8%
52 | Cc1c(Br)cc(Br)c2c1C(=Cc1sccc1Br)C(=O)N2 [10725/H02] | −23.5%
53 | COc1ccc(Br)c(C=C2C(=O)Nc3c(Br)cc(Br)c(C)c32)c1O [10725/H03] | −16.5%
54 | Cc1ccc(C=C2C(=O)Nc3c(Br)cc(Br)c(C)c32)o1 [10725/H04] | 17.2%
55 | Cc1cc(C=C2C(=O)Nc3c(Br)cc(Br)c(C)c32)[nH]n1 [10725/H05] | −30.2%
56 | COc1cc(C)cc(O)c1C=C1C(=O)Nc2c(Br)cc(Br)c(C)c21 [10725/H06] | 0.3%
57 | Cc1c(Br)cc(Br)c2c1C(=Cc1ccc(N3CCN(C=O)CC3)cc1)C(=O)N2 [10725/H07] | −13.3%
58 | Cc1c(Br)cc(Br)c2c1C(=Cc1ccc(N3CCOCC3)cc1)C(=O)N2 [10725/H08] | −3.7%
59 | COC(=O)Cc1c(Cl)[nH]c(C=C2C(=O)Nc3c(Br)cc(Br)c(C)c32)c1C(=O)OC [10725/H09] | −28.4%
60 | Cc1c(Br)cc(Br)c2c1C(=Cc1c(Br)cnn1-c1ccc(Cl)cc1)C(=O)N2 [10725/H10] | 9.1%
61 | Cc1c(Br)cc(Br)c2c1C(=Cc1c[nH]cn1)C(=O)N2 [10725/H11] | 0.5%
62 | Cc1c(Br)cc(Br)c2c1C(=Cc1ccccc1[N+](=O)[O-])C(=O)N2 [10726/H02] | −11.2%
63 | CCOC(=O)c1[nH]c(C=C2C(=O)Nc3c(Br)cc(Br)c(C)c32)c(C(=O)OC)c1C [10726/H03] | 14.0%
64 | Cc1cc(C=C2C(=O)Nc3c(Br)cc(Br)c(C)c32)cc(C(C)(C)C)c1O [10726/H04] | 75.5%
65 | COc1cccc(C=C2C(=O)Nc3ccc(S(=O)(=O)N4CCOCC4)cc32)c1 [10736/F10] | −0.7%
66 | O=C1Nc2ccc(S(=O)(=O)N3CCOCC3)cc2C1=Cc1ccccc1Cl [10736/F11] | −23.4%
67 | O=C1Nc2ccc(CCCl)cc2C1=Cc1ccc(Cl)cc1 [10736/G02] | −4.5%
68 | O=C1Nc2ccc(CCCl)cc2C1=Cc1ccccc1C(F)(F)F [10736/G03] | 23.0%
69 | Cc1cccc(C=C2C(=O)Nc3ccc(CCCl)cc32)c1 [10736/G04] | −35.0%

same assay, conditions: protocol P.167

Row | SMILES | Biochem EGFR % Inhibition (P.167)
70 | O=C1Nc2ccc(CCCl)cc2C1=Cc1cccc(F)c1 [10736/G07] | −74.8%
71 | O=C1Nc2ccc(CCCl)cc2C1=Cc1ccccc1F [10736/G08] | −9.2%
72 | CCc1ccc(C=C2C(=O)Nc3ccc(CCCl)cc32)cc1 [10736/G09] | 12.4%
73 | COc1cccc(C=C2C(=O)Nc3ccc(CCCl)cc32)c1 [10736/G10] | −4.5%
74 | O=C1Nc2ccc(CCCl)cc2C1=Cc1ccccc1Cl [10736/G11] | −6.4%
75 | Cc1c(Br)cc(Br)c2c1C(=Cc1ccc(Cl)cc1)C(=O)N2 [10736/H02] | −32.0%
76 | Cc1c(Br)cc(Br)c2c1C(=Cc1ccccc1C(F)(F)F)C(=O)N2 [10736/H03] | −1.4%
77 | Cc1cccc(C=C2C(=O)Nc3c(Br)cc(Br)c(C)c32)c1 [10736/H04] | −4.3%
78 | Cc1ccc(C=C2C(=O)Nc3c(Br)cc(Br)c(C)c32)cc1 [10736/H05] | −28.9%
